Measured values taken from ChEMBL document CHEMBL1201862, “PubChem BioAssay data set” (2004).
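Exposure lasted 48 hours, with cells grown in 96-well plates and compounds tested at five concentrations. GI50 = concentration required for 50% inhibition of growth.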 Activity calls are given as the source filed them. No stated cut-off is given here; in the data, active = GI50 up to about 1.1 µM and inactive = higher.

Columns and labels:
Assay in all cases: NCI-60 cell line screen, 48 h
[1] = tested on: NCI-H23
[2] = tested on: LXFL 529
[3] = tested on: DMS-114
[4] = tested on: SF-268
[5] = tested on: A498
[6] = tested on: OVCAR-8
[7] = tested on: MOLT-4
[8] = tested on: DLD-1
[9] = tested on: KM12
[10] = tested on: M19-MEL
[11] = tested on: NCI-H460
[12] = tested on: HCT-15
[13] = tested on: KM-20L2
[14] = tested on: COLO 205
[15] = tested on: SK-OV-3
[16] = tested on: TK-10
[17] = tested on: SK-MEL-2
[18] = tested on: NCI-H522
[19] = tested on: RPMI-8226
[20] = tested on: HT-29
[21] = tested on: IGROV-1
[22] = tested on: OVCAR-4
[23] = tested on: EKVX
[24] = tested on: RXF 393
[25] = tested on: UACC-257
[26] = tested on: HCC 2998
[27] = tested on: XF498
[28] = tested on: SK-MEL-28
[29] = tested on: HCT-116
[30] = tested on: UO-31
[31] = tested on: M14
[32] = tested on: CCRF-CEM
[33] = tested on: SN12C
[34] = tested on: CAKI-1
[35] = tested on: SW-620
[36] = tested on: SR
[37] = tested on: HOP-92
[38] = tested on: K562
[39] = tested on: SF-539
[40] = tested on: LOX IMVI
[41] = tested on: UACC-62
[42] = tested on: HL-60
[43] = tested on: NCI-H226
[44] = tested on: SNB-75
[45] = tested on: ACHN
[46] = tested on: SNB-19
[47] = tested on: A549
[48] = tested on: U-251
[49] = tested on: SF-295
[50] = tested on: DMS-273
[51] = tested on: SK-MEL-5
[52] = tested on: SNB-78
[53] = tested on: HOP-62
[54] = tested on: OVCAR-5
[55] = tested on: OVCAR-3
[56] = tested on: Malme-3M
[57] = tested on: 786-0

N#Cc1ccccc1NC(=O)C(=O)C(C(=O)c1ccccc1F)C1OC(=O)c2ccccc21 (stereo not given)
GI50 [1]: 40.4 µM (inactive)
GI50 [2]: 31 µM (inactive)
GI50 [3]: 35.5 µM (inactive)
GI50 [4]: 40.1 µM (inactive)
GI50 [5]: > 100 µM (inactive)
GI50 [6]: 40.7 µM (inactive)
GI50 [7]: 25 µM (inactive)
GI50 [8]: 46.8 µM (inactive)
GI50 [9]: 41.2 µM (inactive)
GI50 [10]: 29.7 µM (inactive)
GI50 [11]: 41.1 µM (inactive)
GI50 [12]: 30.1 µM
GI50 [13]: 76.7 µM (inactive)
GI50 [14]: 37.7 µM (inactive)
GI50 [15]: 41.3 µM (inactive)
GI50 [16]: > 100 µM (inactive)
GI50 [17]: 24.1 µM (inactive)
GI50 [18]: 21 µM (inactive)
GI50 [19]: 25 µM (inactive)
GI50 [20]: 40 µM (inactive)
GI50 [21]: 86.1 µM (inactive)
GI50 [22]: 65 µM (inactive)
GI50 [23]: 45.5 µM (inactive)
GI50 [24]: 44.3 µM (inactive)
GI50 [25]: 58.2 µM (inactive)
GI50 [26]: 19.9 µM (inactive)
GI50 [27]: 84.7 µM (inactive)
GI50 [28]: 39.4 µM (inactive)
GI50 [29]: 34.2 µM (inactive)
GI50 [30]: 43.8 µM (inactive)
GI50 [31]: 82 µM (inactive)
GI50 [32]: 15.1 µM (inactive)
GI50 [33]: 28.2 µM (inactive)
GI50 [34]: 64.4 µM (inactive)
GI50 [35]: > 100 µM (inactive)
GI50 [36]: 17.1 µM (inactive)
GI50 [37]: > 100 µM (inactive)
GI50 [38]: 36.7 µM (inactive)
GI50 [39]: 24.8 µM (inactive)
GI50 [40]: 21.9 µM (inactive)
GI50 [41]: 41 µM (inactive)
GI50 [42]: 20.9 µM (inactive)
GI50 [43]: 18.4 µM (inactive)
GI50 [44]: 38.4 µM (inactive)
GI50 [45]: 80.7 µM (inactive)
GI50 [46]: 32.4 µM (inactive)
GI50 [47]: 70.8 µM (inactive)
GI50 [48]: 15 µM (inactive)
GI50 [49]: 55.1 µM (inactive)
GI50 [50]: 30.8 µM (inactive)
GI50 [51]: 89.3 µM (inactive)
GI50 [52]: 25.8 µM (inactive)
GI50 [53]: 66.8 µM (inactive)
GI50 [54]: 65.6 µM (inactive)

O=C1C(O)=C(CCCc2ccc(Oc3ccccc3)cc2)C(=O)c2ccccc21
GI50 [1]: 4.58 µM (inactive)
GI50 [2]: 4.98 µM (inactive)
GI50 [3]: 4.73 µM (inactive)
GI50 [4]: 7.64 µM (inactive)
GI50 [5]: 10.3 µM (inactive)
GI50 [6]: 7.76 µM (inactive)
GI50 [7]: 4.19 µM (inactive)
GI50 [8]: 10.4 µM (inactive)
GI50 [9]: 15.1 µM (inactive)
GI50 [10]: 7.13 µM (inactive)
GI50 [11]: 10.4 µM (inactive)
GI50 [55]: 6.53 µM (inactive)
GI50 [12]: 4.28 µM
GI50 [13]: 31.3 µM (inactive)
GI50 [14]: 17.7 µM (inactive)
GI50 [15]: 51.4 µM (inactive)
GI50 [16]: 18.4 µM (inactive)
GI50 [17]: 10.2 µM (inactive)
GI50 [18]: 6.49 µM (inactive)
GI50 [19]: 5.52 µM (inactive)
GI50 [20]: 30.9 µM (inactive)
GI50 [21]: 6.19 µM (inactive)
GI50 [22]: 19.4 µM (inactive)
GI50 [23]: 11.6 µM (inactive)
GI50 [24]: 14.4 µM (inactive)
GI50 [25]: 4.32 µM (inactive)
GI50 [26]: 25.7 µM (inactive)
GI50 [56]: 12.9 µM (inactive)
GI50 [27]: 9.02 µM (inactive)
GI50 [28]: 17.9 µM (inactive)
GI50 [29]: 3.7 µM (inactive)
GI50 [30]: 5.92 µM (inactive)
GI50 [31]: 10.5 µM (inactive)
GI50 [32]: 18.1 µM (inactive)
GI50 [33]: 10.9 µM (inactive)
GI50 [34]: 21.2 µM (inactive)
GI50 [35]: 8.63 µM (inactive)
GI50 [36]: 15.2 µM (inactive)
GI50 [37]: 12.9 µM (inactive)
GI50 [38]: 5.78 µM (inactive)
GI50 [39]: 6.46 µM (inactive)
GI50 [40]: 3.57 µM (inactive)
GI50 [41]: 3.94 µM (inactive)
GI50 [42]: 7.94 µM (inactive)
GI50 [43]: 10.8 µM (inactive)
GI50 [57]: 5.64 µM (inactive)
GI50 [44]: 24.4 µM (inactive)
GI50 [45]: 5.93 µM (inactive)
GI50 [46]: 7.46 µM (inactive)
GI50 [48]: 5.64 µM (inactive)
GI50 [49]: 7.78 µM (inactive)
GI50 [50]: 3.89 µM (inactive)
GI50 [51]: 3.38 µM (inactive)
GI50 [52]: 28.1 µM (inactive)
GI50 [53]: 10.7 µM (inactive)
GI50 [54]: 41.1 µM (inactive)
